≈ marks a conversion by molar mass, not a printed value.
What was measured:
[1] = Aqueous solubility of the compound in PBS buffer at pH 7.4 incubated for 72 hrs by HPLC analysis; assay type: physicochemical
[2] = Metabolic stability in human liver microsomes assessed as metabolic turnover at 1 uM measured after 30 mins in presence of NADPH by LC/MS analysis; assay type: ADME, Microsome; settings: read-out: Drug metabolism
[3] = Metabolic stability in rat liver microsomes assessed as metabolic turnover at 1 uM measured after 30 mins in presence of NADPH by LC/MS analysis; assay type: ADME, Microsome; settings: read-out: Drug metabolism
[4] = Clearance in male Sprague-Dawley rat at 0.5 mg/kg, iv; assay type: ADME, organism-based; settings: in vivo
[5] = Unbound clearance in male Sprague-Dawley rat at 0.5 mg/kg, iv; assay type: ADME, organism-based; settings: in vivo
[6] = Clearance in male Sprague-Dawley rat at 0.72 mg/kg, iv; assay type: ADME, organism-based; settings: in vivo
[7] = Oral bioavailability in male Sprague-Dawley rat at 2 mg/kg; assay type: ADME, organism-based; settings: in vivo
[8] = Clearance in male Sprague-Dawley rat at […], iv; assay type: ADME, organism-based; settings: in vivo, dose 0.71 mg/kg
[9] = Clearance in male Sprague-Dawley rat at 0.8 mg/kg, iv; assay type: ADME, organism-based; settings: in vivo

C[C@H](Nc1ncnc(N)c1C#N)c1nc2ccc(F)cc2n1-c1ccccc1
solubility at 72 h [1]: 374 µM (≈ 140 µg/mL)
metabolised at 0.5 h, 1 µM [2]: < 10%
metabolised at 0.5 h, 1 µM [3]: 26%
clearance [4]: 40.2 mL/min/kg
CL free [5]: 447 mL/min/kg

C[C@H](Nc1ncnc(N)c1C#N)c1nc2ccc(F)cc2n1-c1cccc(F)c1
solubility at 72 h [1]: 401 µM (≈ 157 µg/mL)
metabolised at 0.5 h, 1 µM [2]: 15%
metabolised at 0.5 h, 1 µM [3]: 28%
clearance [6]: 46 mL/min/kg
CL free [5]: 460 mL/min/kg

C[C@H](Nc1ncnc(N)c1C#N)c1nc2ccc(F)cc2n1-c1ccccn1
solubility at 72 h [1]: 500 µM (≈ 187 µg/mL)
metabolised at 0.5 h, 1 µM [2]: < 10%
metabolised at 0.5 h, 1 µM [3]: < 10%
clearance [4]: 16.2 mL/min/kg
CL free [5]: 73.3 mL/min/kg
bioavailability [7]: 58%

C[C@H](Nc1ncnc(N)c1C#N)c1nc2ccc(F)cc2n1-c1cc(F)cc(F)c1
solubility at 72 h [1]: 305 µM (≈ 125 µg/mL)
metabolised at 0.5 h, 1 µM [2]: 11%
metabolised at 0.5 h, 1 µM [3]: 30%
clearance [4]: 44 mL/min/kg
CL free [5]: 338 mL/min/kg

C[C@H](Nc1ncnc(N)c1C#N)c1nc2ccc(F)cc2n1-c1cncc(F)c1
solubility at 72 h [1]: 500 µM (≈ 196 µg/mL)
metabolised at 0.5 h, 1 µM [2]: < 10%
metabolised at 0.5 h, 1 µM [3]: < 10%
clearance [4]: 16.5 mL/min/kg
CL free [5]: 51.7 mL/min/kg
bioavailability [7]: 41%

C[C@H](Nc1ncnc(N)c1C#N)c1nc2ccc(F)cc2n1-c1cccnc1
solubility at 72 h [1]: 474 µM (≈ 177 µg/mL)
metabolised at 0.5 h, 1 µM [2]: < 10%
metabolised at 0.5 h, 1 µM [3]: < 10%
CL free [5]: 43.3 mL/min/kg
bioavailability [7]: 45%
clearance [8]: 15.5 mL/min/kg

C[C@H](Nc1ncnc(N)c1C#N)c1nc2ccc(F)cc2n1-c1ccc(F)cc1
solubility at 72 h [1]: 353 µM (≈ 138 µg/mL)
metabolised at 0.5 h, 1 µM [2]: < 10%
metabolised at 0.5 h, 1 µM [3]: 22%
clearance [4]: 29.7 mL/min/kg
CL free [5]: 300 mL/min/kg

C[C@H](Nc1ncnc(N)c1C#N)c1nc2ccc(F)cc2n1-c1cccc(S(C)(=O)=O)c1
solubility at 72 h [1]: 500 µM (≈ 226 µg/mL)
metabolised at 0.5 h, 1 µM [2]: < 10%
metabolised at 0.5 h, 1 µM [3]: < 10%
clearance [9]: 71.7 mL/min/kg
CL free [5]: 205 mL/min/kg
